Assay results as given in patent publication US20110171221A1, “COMPOSITIONS AND METHODS FOR THE TREATMENT OF A NEOPLASIA” (University of Florida Research Foundation, priority 2008, published 2011).
Entries after “also recorded” stand apart in the source; their conditions may differ.

Experiments:
[1] = tested on: Sox2, Oct 3/4 and Nanog expression in metastatic prostate stem cell lines; experiment: Western blot of stem cell markers after Docetaxel; assay type: cell-based, human; conditions: Docetaxel 1 nM, 2 nM, 5 nM, 10 nM
Procedure: (§1) Prostate cancer stem cells from metastatic prostate cancer cell lines were examined for their sensitivity to conventional cancer treatments (e.g., radiation and chemotherapy). […] Metastatic prostate stem cell lines were also treated with Docetaxel, a frontline treatment for drug-resistant cancer cells.
For the experiments described above, Western-blot analysis was performed by standard methods on isolated cancer stem cells and non-cancer stem cells. Whole cell lysates were prepared in lysis buffer with a commercially available protease inhibitor cocktail (Pierce) at 4° C., followed by centrifugation at 13,000×g for 10 min. Extracts were separated by SDS/PAGE and transferred to nitrocellulose membranes. The membranes were blocked with 5% nonfat dry milk in 20 mM Tris-HCl (pH 7.5), 500 mM sodium chloride, and 0.05% Tween 20 for 2 h and then incubated with commercially available primary antibodies against OCT3/4, c-Myc, β-actin (Cell Signaling), SOX2, Klf4 (Santa Cruz), Nanog (BioLegend), or E-cadherin (BD Bioscience) in the same buffer with 1% BSA (fraction V). After washing, the blots were incubated with an HRP-conjugated secondary antibody and visualized with a commercially available chemiluminescence detection system (Amersham). β-actin-specific Abs were used to ensure equal protein loading.

[2] = tested on: prostate cancer stem cells (CSC) and non-stem prostate cancer cells (Non-CSC); experiment: cell viability after Docetaxel; assay type: cell-based, human; conditions: 5 nM Docetaxel, Day 0, 1, 2 and 3 (up to 72 hours)
Procedure: FIG. 12B is a graph depicting the cell viability of prostate cancer stem cells (CSC) and non-stem prostate cancer cells (Non-CSC) observed for up to 72 hours after treatment with Docetaxel. Cell viability was determined by quantifying the surviving prostate cancer stem cells (CSC) and non-stem prostate cancer cells (Non-CSC) in the samples exposed to 5 nM Docetaxel at Day 0, 1, 2 and 3.
as §1

CC(=O)O[C@@]12CO[C@@H]1C[C@H](O)[C@@]1(C)C(=O)[C@H](O)C3=C(C)[C@@H](OC(=O)[C@H](O)[C@@H](NC(=O)OC(C)(C)C)c4ccccc4)C[C@@](O)([C@@H](OC(=O)c4ccccc4)[C@H]21)C3(C)C [Docetaxel]
detection of Sox2, Oct 3/4 and Nanog expression [1]: increased detection of Sox2, Oct 3/4 and Nanog expression with increasing dose | cell viability of prostate cancer stem cells vs non-stem prostate cancer cells [2]: more cell viability compared to non-stem prostate cancer cells; also recorded: resistant
